Experimental data: US11078222B2, “Hydroxybenzoic acid derivatives, methods and uses thereof” (UNiVERSIDADE DO PORTO, priority 2016, dated 2021)

Key:
[1] = tested on: human hepatocellular carcinoma cells (HepG2); assay: Cytotoxicity, SRB method; type: cell-based
Protocol: In an embodiment, and as an example, the cytotoxicity of AntiOxBENs was assessed using monolayer cultures of human hepatocytes from hepatocellular carcinoma (HepG2) and SRB method (FIG. 8).
In an embodiment, the cytotoxicity profile of AntiOxBENs was evaluated in human hepatocellular carcinoma HepG2 cells. Human hepatocellular carcinoma HepG2 cells were cultured in high-glucose medium composed by Dulbecco's modified Eagle's medium (DMEM; D5648) supplemented with sodium pyruvate (0.11 g/L), sodium bicarbonate (1.8 g/L) and 10% fetal bovine serum (FBS) and 1% of antibiotic penicillin-streptomycin 100× solution. Cells were maintained at 37° C. in a humidified incubator with 5% CO2. HepG2 cells were seeded at density of 4×10^4 cells/mL and grown for 24 hours before treatment.
In an embodiment the cytotoxicity screening was performed as follows: cells were placed on 48-well plate (2×10^4 cells/500 μL) and then were incubated during 48 hour with AntiOxBENs concentrations ranging 25 μM to 500 μM. After incubation, sulforhodamine B (SRB) assay was used for cell density determination based on the measurement of cellular protein content. Briefly, after incubation, the medium was removed and wells rinsed with PBS […]. Cells were fixed by adding 1% acetic acid in 100% methanol for at least 2 hours at −20° C. Later, the fixation solution was discarded and the plates were dried in an oven at 37° C. Two hundred and fifty microliters of 0.5% SRB in 1% acetic acid solution was added and incubated at 37° C. for 1 h. The wells were then washed with 1% acetic acid in water and dried. Then, 500 μl of Tris (pH 10) was added and the plates were stirred for 15 min. Finally, 200 μl of each supernatant was transferred in 96-well plates and optical density was measured at 540 nm. Data are means±SEM of four independent experiments and the results are expressed as percentage of control (control=100%), which represents the cell density without any treatment in the respective time point.

[2] = GO radical scavenging activity; type: biochemical; conditions: ethanol, 428 nm, 30 min
Protocol: The selected total antioxidant capacity (TAC) assays (DPPH, ABTS and GO) involved the spectrophotometric measurement of the radical absorbance decrease as a result of an in situ radical deactivation by an antioxidant.
(§1) The radical scavenging activity of AntiOxClNs was evaluated by means of total antioxidant capacity assays based on DPPH., ABTS.^+ and GO. radicals. All these methods involved the spectrophotometric measurement of the absorbance decrease resulting from radical (DPPH., ABTS.^+ or GO.) deactivation with an antioxidant. The results were expressed in IC50, which is defined as the minimum antioxidant concentration necessary to reduce the amount of radical by 50%. Antioxidant assays were performed in a multiplate reader (Powerwave XS Microplate Reader) from Bio Tech instruments.
In an embodiment, the GO. scavenging activity was evaluated as follows: solutions of test compounds with concentrations from 10 μM to 100 μM were prepared in ethanol. An ethanolic solution of 5 mM GO. was prepared and diluted to reach the absorbance of 1.00±0.02 at 428 nm. The addition (20 μL) in triplicate of compound solution to GO. solution (180 μL) was followed by absorbance measurement at 428 nm over 30 minutes, in the dark, at room temperature. […] Dose-response curves were established for the determination of IC50 values.

[3] = Redox potential by differential pulse and cyclic voltammetry, glassy carbon electrode; type: physicochemical; conditions: physiological pH 7.4
Protocol: In an embodiment, the oxidative behaviour of the parent antioxidants (protocatechuic and gallic acids) and AntiOxBENs was evaluated at physiological pH 7.4, by differential pulse and cyclic voltammetry, using a glassy carbon working electrode. […] For pyrogallol derivatives (gallic acid, AntiOxBEN2, AntiOxBEN3), a significant decrease in redox potentials was observed (Ep=0.163-0.168 V) (Table 1).
In an embodiment, the electrochemical analytical data was obtained using a computer controlled potentiostat Autolab PGSTAT302N (Metrohm Autolab, Utrecht, Netherlands). Generally, cyclic voltammetry (CV) data was acquired at a scan rate of 50 mVs^−1. Differential pulse voltammetry (DPV) results were acquired at a step potential of 4 mV, pulse amplitude of 50 mV and scan rate of 8 mVs^−1. The electrochemical signals were monitored by the General Purpose Electrochemical System (GPES) version 4.9, software package. All electrochemical experiments were performed at room temperature in an electrochemical cell that was placed in a Faraday cage in order to minimize the contribution of background noise to the analytical signal.
In an embodiment, the process of evaluation of AntiOxBENs redox properties was conducted as follows: stock solutions of each compound (10 mM) were prepared by dissolving the appropriate amount in ethanol. The voltammetric working solutions were prepared in the electrochemical cell, at a final concentration of 0.1 mM. The […] supporting electrolyte was prepared by diluting 6.2 mL of 0.2 M dipotassium hydrogen phosphate and 43.8 mL of 0.2 M potassium dihydrogen phosphate to 100 mL. Voltammetric data was acquired in a three-electrode system consisting of a glassy carbon electrode (GCE, d=2 mm) as working electrode, a counter electrode of platinum wire and a saturated Ag/AgCl reference electrode. In an embodiment, the evaluation of AntiOxBENs lipophilic properties was performed as follows: the electrochemical cell was a four-electrode system with arrays of micro liquid-liquid interfaces (μITIES) containing two Ag/AgCl reference electrodes and two counter electrodes of Pt, one in each phase. The microporous membrane was sealed with a fluorosilicone sealant (Dow Corning 730) onto a glass cylinder which was filled with 4.0 mL of the aqueous phase, where the aliquots of AntiOxBENs solutions were added. The membrane was then immersed into the organic phase contained in the cell. The organic phase reference solution (a 2 mM BTPPACI+2 mM NaCl aqueous solution) was mechanically stabilized The aqueous supporting electrolyte solution was a Tris-HCl buffer 10 mM pH 7.0.

[4] = ABTS radical cation scavenging activity; type: biochemical; conditions: ethanol, 15 min
Protocol: as §1
In an embodiment, the ABTS.^+ scavenging activity was evaluated as follows: ethanolic solutions of the test compounds with increasing concentrations (range between 10 μM and 500 μM) were prepared. ABTS. radical cation solution was obtained by addition of 150 mM aqueous potassium persulfate solution (163 μL) to 10 mL of 7 mM aqueous ABTS solution followed by storage in the dark at room temperature for 16 h (2.45 mM final concentration). The solution was then diluted in ethanol to reach the absorbance of 0.72±0.02. After addition of the compound (20 μL), in triplicate, to ABTS.^+ solution (180 μL) the spectrophotometric measurement was carried out each minute over 15 minutes. […] Dose-response curves were established for the determination of IC50 values.

[5] = tested on: rat liver mitochondria (RLM) membranes; assay: RLM lipid peroxidation, TBARS assay (FeSO4/H2O2/ascorbate); conditions: 5 μM, FeSO4/H2O2/ascorbate
[6] = tested on: rat liver mitochondria (RLM); assay: Mitochondrial respiration of isolated RLM (Clark-type oxygen electrode): RCR, ADP/O; type: biochemical; conditions: RLM
Protocol: In an embodiment, and as an example, the toxicity effects of some AntiOxBENs and MitoQ on the mitochondrial bioenergetics, namely on RLM Δψ and respiration parameters, were measured. The Δψ represents the main component of the electrochemical gradient generated by mitochondrial respiration and accounts for more than 90% of the total available energy. For mitochondrial respiration assays, glutamate/malate (for complex I) and succinate (for complex II) were used as substrates. In addition, the mitochondrial oxidative phosphorylation coupling index, known as respiratory control ratio (RCR, state 3/state 4 respiration) and ADP/O index (the coupling between ATP synthesis and oxygen consumption) were also calculated. AntiOxBENs and MitoQ were tested at antioxidant-relevant concentrations, with 10 μM being the highest concentration.
In an embodiment, the evaluation of AntiOxBENs effect on mitochondrial respiration was performed as follows: the respiration of isolated RLM was evaluated polarographically with a Clark-type oxygen electrode, connected to a suitable recorder in a 1 mL thermostated water-jacketed chamber with magnetic stirring, at 37° C. […] Increasing concentrations of AntiOxBENs (2.5-10 μM) were added to the reaction medium containing respiratory substrates glutamate/malate (10 mM and 5 mM respectively) or succinate (5 mM) and RLM (1 mg) and allowed to incubate for a 5 min period prior to the assay. State 2 was considered as the respiration during the 5 min incubation time with AntiOxBENs. […] State 4 was determined after ADP phosphorylation finished. Subsequent addition of oligomycin (2 μg/ml) inhibited ATPsynthase and originated the oligomycin-inhibition respiration state. Finally, 1 μM FCCP was added to induce uncoupled respiration. […] Data are means are means±SEM of seven independent experiments.

Compound	concentrations at which cell proliferation was stimulated ([1]; HepG2, 48 hour, SRB)	IC50 [2] [µM]	IC50 [4] [µM]	prevention of TBARS formation / mitochondria lipid peroxidation [5]	ADP/O ([6]; Glutamate/Malate, 2.5 μM)	RCR ([6]; Glutamate/Malate, 2.5 μM)	ADP/O ([6]; Glutamate/Malate, 5 μM)	RCR ([6]; Glutamate/Malate, 5 μM)	ADP/O ([6]; Glutamate/Malate, 10 μM)	RCR ([6]; Glutamate/Malate, 10 μM)	ADP/O ([6]; Succinate, 2.5 μM)	RCR ([6]; Succinate, 2.5 μM)	ADP/O ([6]; Succinate, 5 μM)	RCR ([6]; Succinate, 5 μM)	ADP/O ([6]; Succinate, 10 μM)	RCR ([6]; Succinate, 10 μM)	other results
O=C(NCCCCCC[P+](c1ccccc1)(c1ccccc1)c1ccccc1)c1ccc(O)c(O)c1.[Br-] [AntiOxBEN1, 6-(3,4-dihydroxybenzamido)hexyltriphenylphosphonium bromide]	higher than 100 μM	4.3	29.9	not effective	2.5 ± 0.2	4.9 ± 0.6	2.8 ± 0.4	4.4 ± 0.6	2.1 ± 0.1	2.6 ± 0.1	1.7 ± 0.03	4.7 ± 0.3	1.6 ± 0.1	3.0 ± 0.3	1.5 ± 0.1	2.8 ± 0.3	toxicity / effect on HepG2 cell proliferation ([1]; HepG2, 48 hour, 25 μM to 500 μM, SRB): small inhibition of cell proliferation for lower concentrations; Ep (redox potential) [3]: 0.224 V
O=C(NCCCCCC[P+](c1ccccc1)(c1ccccc1)c1ccccc1)c1cc(O)c(O)c(O)c1.[Br-] [AntiOxBEN2, 6-(3,4,5-trihydroxybenzamido)hexyltriphenylphosphonium bromide]	lower than 250 μM	3	10.3	most effective	2.3 ± 0.3	4.3 ± 0.6	2.3 ± 0.2	3.9 ± 0.5	2.1 ± 0.2	2.9 ± 0.3	1.7 ± 0.1	5.2 ± 0.9	1.7 ± 0.1	3.8 ± 0.4	1.6 ± 0.04	3.5 ± 0.3	Ep (redox potential) ([3]; listed as MitoBEN2): 0.168 V
O=C(CCCCC[P+](c1ccccc1)(c1ccccc1)c1ccccc1)NCCCCCCNC(=O)c1cc(O)c(O)c(O)c1.[Br-] [AntiOxBEN3, [5-(6-(3,4,5-trihydroxybenzamido)hexylamino)carbonylpentyl]triphenylphosphonium bromide]	–	3.4	9.6	most effective	2.3 ± 0.2	3.9 ± 0.5	2.3 ± 0.1	3.9 ± 0.6	2.0 ± 0.2	3.07 ± 0.6	1.6 ± 0.1	4.1 ± 0.5	1.6 ± 0.1	4.3 ± 0.7	1.7 ± 0.1	3.9 ± 0.4	concentrations at which cell proliferation was significantly inhibited ([1]; human, 48 h): higher than 250 μM; Ep (redox potential) ([3]; listed as MitoBEN3): 0.164 V
